From PubChem BioAssay (NCI)
Values joined by “and” are separate entries in the source; they are usually repeats but may differ in a detail not shown here. Identical values can stand only once.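 Five concentrations, 48 hours, 96-well plates. At the GI50, growth is halved. The concentration for full growth arrest is given as TGI.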

What was measured:
Experiment in all cases: NCI tumour cell line growth inhibition, 48 h
786-0 renal = tested on: 786-0 renal
A549 NSCLC = tested on: A549 NSCLC
BT-549 breast = tested on: BT-549 breast
CAKI-1 renal = tested on: CAKI-1 renal
CCRF-CEM leukemia = tested on: CCRF-CEM leukemia
COLO 205 colon = tested on: COLO 205 colon
DLD-1 colon = tested on: DLD-1 colon
DMS 114 small cell lung = tested on: DMS 114 small cell lung
DMS 273 small cell lung = tested on: DMS 273 small cell lung
DU-145 prostate = tested on: DU-145 prostate
EKVX NSCLC = tested on: EKVX NSCLC
HCC-2998 colon = tested on: HCC-2998 colon
HCT-116 colon = tested on: HCT-116 colon
HCT-15 colon = tested on: HCT-15 colon
HOP-18 NSCLC = tested on: HOP-18 NSCLC
HOP-62 NSCLC = tested on: HOP-62 NSCLC
HOP-92 NSCLC = tested on: HOP-92 NSCLC
HT29 colon = tested on: HT29 colon
IGROV1 ovarian = tested on: IGROV1 ovarian
K-562 leukemia = tested on: K-562 leukemia
KM12 colon = tested on: KM12 colon
KM20L2 colon = tested on: KM20L2 colon
MCF7 breast = tested on: MCF7 breast
MDA-MB-435 = tested on: MDA-MB-435
MOLT-4 leukemia = tested on: MOLT-4 leukemia
NCI-H226 lung = tested on: NCI-H226 lung
NCI-H23 lung = tested on: NCI-H23 lung
NCI-H460 lung = tested on: NCI-H460 lung
NCI-H522 lung = tested on: NCI-H522 lung
NCI/ADR-RES ovarian = tested on: NCI/ADR-RES ovarian
OVCAR-4 ovarian = tested on: OVCAR-4 ovarian
OVCAR-5 ovarian = tested on: OVCAR-5 ovarian
P388 leukemia = tested on: P388 leukemia
P388/ADR leukemia = tested on: P388/ADR leukemia
SF-268 CNS = tested on: SF-268 CNS
SF-295 CNS = tested on: SF-295 CNS
SF-539 CNS = tested on: SF-539 CNS
SK-MEL-2 melanoma = tested on: SK-MEL-2 melanoma
SK-MEL-5 melanoma = tested on: SK-MEL-5 melanoma
SK-OV-3 ovarian = tested on: SK-OV-3 ovarian
SN12C renal = tested on: SN12C renal
SN12K1 renal = tested on: SN12K1 renal
SNB-75 CNS = tested on: SNB-75 CNS
SR leukemia = tested on: SR leukemia
SW-620 colon = tested on: SW-620 colon
T-47D breast = tested on: T-47D breast
TK-10 renal = tested on: TK-10 renal
U251 CNS = tested on: U251 CNS
UACC-257 melanoma = tested on: UACC-257 melanoma
UACC-62 melanoma = tested on: UACC-62 melanoma
UO-31 renal = tested on: UO-31 renal

O=CC(NC(=O)N(CCCl)N=O)C(O)C(O)C(O)CO (configuration not stated)
TGI (786-0 renal): 593 µM
GI50 (A549 NSCLC): 162 µM and 584 µM
TGI (A549 NSCLC): 625 µM and > 1250 µM
TGI (BT-549 breast): > 1250 µM
GI50 (CAKI-1 renal): 269 µM
TGI (CAKI-1 renal): 625 µM and > 1250 µM
GI50 (CCRF-CEM leukemia): 207 µM and 515 µM
TGI (CCRF-CEM leukemia): 625 µM and > 1250 µM
GI50 (COLO 205 colon): > 625 µM
TGI (COLO 205 colon): > 1250 µM
GI50 (DLD-1 colon): > 625 µM
TGI (DLD-1 colon): > 1250 µM
GI50 (DMS 114 small cell lung): 218 µM and > 1250 µM
TGI (DMS 114 small cell lung): 625 µM and > 1250 µM
GI50 (DMS 273 small cell lung): 218 µM and > 1250 µM
TGI (DMS 273 small cell lung): 625 µM and > 1250 µM and > 1210 µM
TGI (DU-145 prostate): > 1250 µM
GI50 (EKVX NSCLC): > 625 µM
TGI (EKVX NSCLC): > 1250 µM
GI50 (HCC-2998 colon): > 625 µM
TGI (HCC-2998 colon): > 1250 µM
GI50 (HCT-116 colon): 302 µM and 1030 µM and 467 µM
TGI (HCT-116 colon): 625 µM and > 1250 µM and > 992 µM
GI50 (HCT-15 colon): > 625 µM
TGI (HCT-15 colon): > 1250 µM
GI50 (HOP-18 NSCLC): > 625 µM
TGI (HOP-18 NSCLC): > 1250 µM
GI50 (HOP-62 NSCLC): 115 µM
TGI (HOP-62 NSCLC): 536 µM and 422 µM
GI50 (HOP-92 NSCLC): 377 µM and > 1250 µM and 362 µM
TGI (HOP-92 NSCLC): 625 µM and > 1250 µM and > 1230 µM
GI50 (HT29 colon): > 625 µM
TGI (HT29 colon): > 1250 µM
GI50 (IGROV1 ovarian): 460 µM and > 1250 µM
TGI (IGROV1 ovarian): 625 µM and > 1250 µM
GI50 (K-562 leukemia): > 198 µM and 1040 µM
TGI (K-562 leukemia): > 1250 µM
GI50 (KM12 colon): 541 µM
TGI (KM12 colon): 625 µM and > 1250 µM
GI50 (KM20L2 colon): > 625 µM
TGI (KM20L2 colon): > 1250 µM
GI50 (MCF7 breast): 485 µM
TGI (MCF7 breast): 625 µM and > 1250 µM
TGI (MDA-MB-435): > 1250 µM
GI50 (MOLT-4 leukemia): 104 µM
TGI (MOLT-4 leukemia): 625 µM and > 1060 µM
GI50 (NCI-H226 lung): 73.1 µM
TGI (NCI-H226 lung): 625 µM and > 1250 µM
GI50 (NCI-H23 lung): 233 µM and > 1250 µM
TGI (NCI-H23 lung): 625 µM and > 1250 µM
GI50 (NCI-H460 lung): 208 µM and 401 µM
TGI (NCI-H460 lung): 625 µM and > 1250 µM and > 1210 µM
GI50 (NCI-H522 lung): > 625 µM
TGI (NCI-H522 lung): > 1250 µM
GI50 (NCI/ADR-RES ovarian): 499 µM and > 1250 µM
TGI (NCI/ADR-RES ovarian): 625 µM and > 1250 µM
GI50 (OVCAR-4 ovarian): > 625 µM
TGI (OVCAR-4 ovarian): > 1250 µM
GI50 (OVCAR-5 ovarian): > 625 µM
TGI (OVCAR-5 ovarian): > 1250 µM
TGI (P388 leukemia): > 1250 µM
GI50 (P388/ADR leukemia): 34.5 µM and 65 µM
TGI (P388/ADR leukemia): 360 µM and > 1250 µM
GI50 (SF-268 CNS): 19.8 µM and 137 µM
GI50 (SF-295 CNS): 31.5 µM
TGI (SF-295 CNS): 625 µM and 764 µM
GI50 (SF-539 CNS): 40 µM and 255 µM
TGI (SF-539 CNS): 483 µM and > 1250 µM and 614 µM
GI50 (SK-MEL-2 melanoma): > 625 µM
TGI (SK-MEL-2 melanoma): > 1250 µM
GI50 (SK-MEL-5 melanoma): 161 µM
TGI (SK-MEL-5 melanoma): 625 µM and 647 µM
GI50 (SK-OV-3 ovarian): 279 µM
TGI (SK-OV-3 ovarian): 576 µM and > 1250 µM
GI50 (SN12C renal): 206 µM and > 1250 µM
TGI (SN12C renal): 625 µM and > 1250 µM
GI50 (SN12K1 renal): 133 µM and 290 µM
TGI (SN12K1 renal): 625 µM and > 1250 µM
GI50 (SNB-75 CNS): 146 µM
TGI (SNB-75 CNS): 625 µM and 1050 µM
TGI (SR leukemia): > 623 µM
GI50 (SW-620 colon): 171 µM and > 1250 µM
TGI (SW-620 colon): 625 µM and > 1250 µM
TGI (T-47D breast): > 1250 µM
TGI (TK-10 renal): > 1250 µM
GI50 (U251 CNS): 69.2 µM and 105 µM
TGI (U251 CNS): 625 µM and > 1250 µM
GI50 (UACC-257 melanoma): > 625 µM
TGI (UACC-257 melanoma): > 1250 µM
GI50 (UACC-62 melanoma): 18.5 µM
TGI (UACC-62 melanoma): 185 µM and > 1250 µM and 939 µM
TGI (UO-31 renal): > 1250 µM
